One data set in a line: Aqueous solubility assay. The following applies: PBS pH 7.4, four hours, room temperature. It counts as physicochemical. On the procedure: Solutions were incubated for four hours at room temperature and stirred at 600 rpm and run in triplicate. Centrifugation was performed for 15 minutes at 6000 rpm and solution concentration was determined using HPLC-UV (photodiode array detector acquiring between 220 nm, and 300 nm wavelengths).

A short description of a further data set: in vitro. The conditions noted are these: Control buffer/Buffer at 0.1 uM % Recovery.
The nature of data set [1]: Plasma protein binding determination, equilibrium dialysis, mouse plasma. The following applies: first table. In general terms: In equilibrium dialysis only unbound substance equilibrates across the membrane.
Procedure: (§2) An equilibrium dialysis (HTDialysis) method was used employing 50% plasma collected from CD-1 mice or Sprague-Dawley rats and incubated with K2EDTA. Test articles were assessed at 1 microM concentration in three replicates. Incubation time as 5 hours and plasma and buffer standards were assessed using LC/MS/MS. Percentage recovery was calculated as (Cbuffer+Cplasma)/[average]Cinitial, [average]Cinitial being measured in triplicate from the test samples prior to dialysis. Percentage of compound unbound was calculated as Cbuffer/Cplasma.
Another data set concerns plasma proteins. The description is as above. The conditions noted are these: CD-1, mouse, % recovery, Mouse plasma, equilibrium dialysis.
The test system of data set [2] is integrin alpha-4-beta-7-expressing T lymphocytes. The data set can be described thus: In vivo T lymphocyte trafficking analyses in DSS-treated mice. Also on record: species or system C57BI/6 mice. How it is done: In Vivo T Lymphocyte Trafficking Analyses
(§1) Animals. Female C57BI/6 mice (Charles River, St-Constant, Qc), weighting 16-19 g at delivery were used for this study. Following arrival in the animal facility, all animals were subjected to a general health evaluation. An acclimation period of 7-14 days was allowed before the beginning of the study.
Administration of DSS. Dextran sulfate sodium (DSS) was administered to C57B1/6 mice through addition to their drinking water at 2-3%. Mice accessed the DSS-treated water ad libitum over a 5-day period. Body weight and disease activity index (“DAI”) were measured on Day 5 in order to distribute DSS-treated animals in two uniform groups prior to dosing. Specific symptoms associated with colitis were scored based on the severity of each particular symptoms: 1—blood in stool (negative hemoccult, positive hemoccult, blood traces in stool visible, rectal bleeding); 2—stool consistency (normal, soft but still formed, very soft, diarrhea); 3—posture and fur (normal; ruffled fur; ruffled fur combined to slight hunched posture and slight dehydration; ruffled fur combined to hunched posture, dehydration and altered walking; moribund (euthanasia is mandatory before the animal reach this point). The overall DAI score was the sum of the three parameters (maximum score of 9). DAI assessment was performed on Day 5 only (prior to dosing). […]

The nature of another data set: in vivo. The following applies: male, CD-1, mouse, po, 48 mg/kg.
The test system of data set [3] is DSS experimental model of ulcerative colitis. The data set can be described thus: 8-Day efficacy study in DSS model (therapeutic). It counts as in vivo, C57BI/6 mice. The following applies: for reduction of lesion length vs vehicle group / reduction of DAI score on Day 8 vs DSS+vehicle: Day 5 to Day 8.
From the text: The STDs in ascending order bracketing the study samples and dosing solutions • 1. The study samples • 2.
Description of Tested Compounds
as §1
Oral dosing of the test article and the vehicle. From Day 5 to Day 8, nacellins and the vehicle were administered as a single slow bolus (over approximately 5 seconds) via oral route (p.o.), according to the procedure of administration of solution by gavage: the animal was firmly restrained. A bulb-tipped gastric gavage needle of 22G was passed through the side of the mouth and was advanced towards the oesophagus. The test articles and the vehicle were dosed orally at 5 mL/kg.
Intraperitoneal dosing of the test articles and the vehicle. On day 5, DATK32 antibody was administered in only on Day 5, as a single slow bolus (over approximately 5 seconds) via the i.p. route. […] Intraperitoneal administration was performed accordingly to the following procedure: the mouse was restrained manually and held with the head and body tilted downward. The tip of the needle (27 G) was inserted through the skin and just past the abdominal wall. A short pull back of the plunger of the syringe was done prior to administration of the solution to make sure that the syringe was not inserted in any abdominal organ (fluid would be pulled back into the syringe in this case).
Inflammation Score. Once the mouse was euthanized, the colon was collected and its length was measured. Lesion length was also measured. Colon inflammation was scored based on severity of oedema and ulceration.
Disease Activity Index (DAI) assessment. Body weight and DAI were measured on Day 5 in order to distribute DSS-treated animals in two uniform groups prior dosing. Specific symptoms associated to UC were scored based on the severity of each particular symptoms: 1—blood in stool (negative hemoccult, positive hemoccult, blood traces in stool visible, rectal bleeding); 2—stool consistency (normal, soft but still formed, very soft, diarrhea); 3—posture and fur (normal; ruffled fur; ruffled fur combined to slight hunched posture and slight dehydration; ruffled fur combined to hunched posture, dehydration and altered walking; moribund (euthanasia is mandatory before the animal reach this point). The overall DAI score was the sum of the three parameters (maximum score 9). Body weight measurement and DAI assessment were performed also on Day 8 to evaluate the effect of the treatments.
Collection of samples. On Day 8, five hours after ET02451-01, ET02452-01 and vehicle dosing, the animals were euthanized by cardiac puncture under general anesthesia, according to the “Guide to the Care and Use of Experimental Animals” published by the CCAC. Blood was transferred in a Sarstedt tube containing EDTA. Mesenteric and peripheral (inguinal, auxiliary and brachial) lymph nodes were collected and transferred on ice in corresponding tubes containing cold PBS. Nodes were kept on ice until tissue preparation.
Cell population labeling. Blood was withdrawn by cardiac puncture and collected on EDTA-coated tubes. Mensenteric lymph nodes (MLN) and peripheral lymph nodes (PLN) were also collected. Mononuclear cells from the tissues will be isolated using density gradient (Lympholyte) and they were stained with fluorescent antibodies. […] After washes, cells were fixed using BD Fix Solution. Percentage of different subpopulations of T lymphocytes were then analysed using FACSCalibur cytometer. Antibodies employed were the same as listed for the single-dose PD studies above.

From US20210300932A1, “CYCLIC PEPTIDES TARGETING ALPHA-4-BETA-7 INTEGRIN” (Zealand Pharma A/S, priority 2015, published 2021) come the findings set out here.

Structures are written as SMILES.

Procedure for in vitro: as §2
Procedure for plasma proteins: as §2

`CC(C)C[C@@H]1NC(=O)[C@@H](Cc2ccc(O)cc2)NC(=O)[C@@H]2CCCN2[C@H](C(=O)NC(C)(C)C)[C@H](C)NC(=O)[C@H]([C@@H](C)O)NC(=O)[C@H](CC(=O)O)NC1=O` [Compound No. 42]: the “Determined Concentration Rep 2” value in the data set “Aqueous solubility assay” was 960.0 µM.
`CC(C)C[C@@H]1NC(=O)[C@H](Cc2ccc(-c3ccccc3)cc2)NC(=O)[C@@H]2CCCN2[C@H](C(=O)NC(C)(C)C)[C@H](C)NC(=O)[C@H]([C@@H](C)O)NC(=O)[C@H](CC(=O)O)NC1=O` [Compound No. 12] returned a recovery at 5 hours, 0.1 uM in the data set “in vitro” of 128%. In data set [1], the “Control buffer/Buffer at 0.1 uM Cdonor/Creciever” value (from here on “Control buffer/Buffer”) is on record as 94%. The same compound showed a recovery at 5 hours, 1 microM in the data set on plasma proteins (second table) of 89%.
Take `CC(C)C[C@@H]1NC(=O)C2(CCCC2)NC(=O)[C@@H]2CCCN2[C@H](C(=O)NC(C)(C)C)[C@H](C)NC(=O)[C@H]([C@@H](C)O)NC(=O)[C@H](CC(=O)O)NC1=O` [Compound No. 88]: the “Determined Concentration Rep 3” value in the data set “Aqueous solubility assay” was 934.8 µM.
As for `CC(C)C[C@@H]1NC(=O)CN(C)C(=O)[C@H](Cc2ccc(O)cc2)NC(=O)[C@@H]2CCCN2[C@H](C(=O)NC(C)(C)C)[C@H](C)NC(=O)[C@H]([C@@H](C)O)NC(=O)[C@H](CC(=O)O)NC1=O` [Compound No. 105], in data set [2] (single oral dose 200 mg/kg), the “homing to the MLN” value is “significant and robust attenuation of homing”.
For the compound `CC(C)C[C@@H]1NC(=O)[C@H](Cc2ccccc2)NC(=O)[C@@H]2CCCN2[C@H](C(=O)NC(C)(C)C)[C@H](C)NC(=O)[C@H]([C@@H](C)O)NC(=O)[C@H](CC(=O)O)NC1=O` [Compound No. 5], the “homing to the MLN” value in data set [2] (single oral dose 100 mg/kg) is listed as “significant reduction of homing”. In “in vivo”, the Cmax (as a rule, the maximum level reached in the sampled fluid or tissue) is ~1.6 µg/mL. The compound further came in with a recovery at 5 hours, 0.1 uM in “in vitro” of 108%. Further, the “Control buffer/Buffer” value in data set [1] amounted to 80%. Further, the recovery at 5 hours, 1 microM was determined as 130% in the data set with plasma proteins (first table) and 97% with plasma proteins (second table).
Consider `CC(C)C[C@@H]1NC(=O)[C@H](Cc2c[nH]c3ccccc23)NC(=O)[C@@H]2CCCN2[C@H](C(=O)NC(C)(C)C)[C@H](C)NC(=O)[C@H]([C@@H](C)O)NC(=O)[C@H](CC(=O)O)NC1=O` [ET00762], for which the “Control buffer/Buffer” value in data set [1] was 79%.
As to `CC(C)C[C@@H]1NC(=O)[C@@H](Cc2ccncc2)NC(=O)[C@@H]2CCCN2[C@H](C(=O)NC(C)(C)C)[C@H](C)NC(=O)[C@H]([C@@H](C)O)NC(=O)[C@H](CC(=O)O)NC1=O` [Compound No. 62], the “Determined Concentration Rep 2” value in the data set “Aqueous solubility assay” worked out at 988.2 µM.
In the case of `CC(C)C[C@@H]1NC(=O)c2ccc(-c3ccnc4ccccc34)c(c2)CNC(=O)[C@@H]2CCCN2[C@H](C(=O)NC(C)(C)C)[C@H](C)NC(=O)[C@H]([C@@H](C)O)NC(=O)[C@H](CC(=O)O)NC1=O` [Compound No. 341], the “reduction of lesion length vs vehicle group” value in data set [3] (40 mg/kg p.o.) is on record as 53%. In data set [3] (40 mg/kg p.o., b.i.d.), the “reduction of DAI score on Day 8 vs DSS+vehicle” value is “did not have any beneficial effect”. Moreover, in data set [3] (65 mg/kg i.p.), the “CD3+CD4+α4β7+ cell population in mesenteric lymph nodes” value was “significant decrease”, the “reduction of colon inflammation score vs vehicle” value is on record as 39%, the “reduction of DAI score on Day 8 vs DSS+vehicle” value stood at 46% and the “reduction of lesion length vs vehicle group” value is listed as 20%.
`CC(C)NCC(O)COc1cccc2ccccc12` (stereo not drawn) [Propranalol, propranolol, reference compound]: in data set [1] (Mouse plasma, 1 microM, replicate 1), the “% unbound (Cbuffer/Cplasma) 1” value is 22.8%.
